Entries after “also recorded” stand apart in the source; their conditions may differ. Counter-ions that a name gives are not always drawn.
Key:
ovariectomized rats = assay: Femur microarchitecture in ovariectomized rats (micro-CT); type: in vivo, Sprague-Dawley rats; settings: after 4 weeks
Method: As a model of postmenopausal bone loss, ovariectomy was performed on anesthetized adult female Sprague-Dawley rats, with sham surgery as a control. […] Animals in the sham surgery group were vehicle treated. All animals were euthanized by carbon dioxide inhalation 24 hours after the final dose. Bone mineral density was assessed at baseline and again after 4 weeks of treatment using PIXImus dual emission x-ray absorptiometry.
At necropsy, the left femur of each animal was removed, dissected free of soft tissue and stored in 70% ethanol before analysis. A detailed qualitative and quantitative 3-D evaluation was performed using a micro-CT40 system (Scanco Systems, Wayne, Pa.). For each specimen, 250 image slices of the distal femur metaphysis were acquired. Morphometric parameters were determined using a direct 3-D approach in pre-selected analysis regions. Parameters determined in the trabecular bone included bone volume density, bone surface density, trabecular number, trabecular thickness, trabecular spacing, connectivity density, and apparent bone density.

[1] = Phase 1 dose escalation study in healthy postmenopausal women, treatment related AEs, oral daily for 7 days; type: in vivo
Method: The subjects were 40-75 years old with BMI of 18.0-30 kg/m^2. Subjects having evidence of clinically relevant pathology, increased risk of stroke or of history venous thromboembolic events, or use of concomitant medication less than 14 days prior to admission to clinical research center (paracetamol allowed up to 3 days prior) were excluded.
The subjects were treated with placebo or at least one oral dose daily after a light breakfast for 7 days at dose levels of 200 mg, 500 mg, 750 mg and 1000 mg, respectively.

CCNCCc1ccc(CN(CC)c2cc(OC)ccc2[C@@H]2CCc3cc(O)ccc3C2)cc1 [RAD1901, (6R)-6-(2-(N-(4-(2-(ethylamino)ethyl)benzyl)-N-ethylamino)-4-methoxyphenyl)-5,6,7,8-tetrahydronaphthalen-2-ol dihydrochloride]
trabecular architecture (ovariectomized rats): significant preservation of trabecular architecture
Abdominal discomfort AE, % ([1]; 200 mg Gr1): (20) %
Abdominal distension AE, % ([1]; 200 mg Gr1): (7) %
Abdominal pain AE, % ([1]; 200 mg Gr1): (13) %
Dizziness AE, % ([1]; 200 mg Gr1): (7) %
Dyspepsia AE, % ([1]; 200 mg Gr1): (20) %
Flatulance AE, % ([1]; 200 mg Gr1): (13) %
Headache AE, % ([1]; 200 mg Gr1): (20) %
Hiccups AE, % ([1]; 200 mg Gr1): (7) %
Hot flush AE, % ([1]; 200 mg Gr1): (13) %
Myalgia AE, % ([1]; 200 mg Gr1): (13) %
Nausea AE, % ([1]; 200 mg Gr1): (33) %
Odynophagia AE, % ([1]; 200 mg Gr1): (13) %
Salivary hyper-secretion AE, % ([1]; 200 mg Gr1): (13) %
Sensation of a foreign body AE, % ([1]; 200 mg Gr1): (13) %
Vomiting AE, % ([1]; 200 mg Gr1): (13) %
Abdominal distension AE, % ([1]; 200 mg Gr2): (7) %
Abdominal pain AE, % ([1]; 200 mg Gr2): (13) %
Myalgia AE, % ([1]; 200 mg Gr2): (7) %
Oesophageal pain AE, % ([1]; 200 mg Gr2): (13) %
Abdominal distension AE, % ([1]; 500 mg Gr1): (7) %
Abdominal pain AE, % ([1]; 500 mg Gr1): (21) %
Diarrhoea AE, % ([1]; 500 mg Gr1): (21) %
Dizziness AE, % ([1]; 500 mg Gr1): (14) %
Dyspepsia AE, % ([1]; 500 mg Gr1): (36) %
Dysphagia AE, % ([1]; 500 mg Gr1): (7) %
Flatulance AE, % ([1]; 500 mg Gr1): (14) %
Headache AE, % ([1]; 500 mg Gr1): (7) %
Hiccups AE, % ([1]; 500 mg Gr1): (29) %
Hot flush AE, % ([1]; 500 mg Gr1): (43) %
Nausea AE, % ([1]; 500 mg Gr1): (21) %
Odynophagia AE, % ([1]; 500 mg Gr1): (7) %
Oesophageal pain AE, % ([1]; 500 mg Gr1): (7) %
Salivary hyper-secretion AE, % ([1]; 500 mg Gr1): (14) %
Sensation of a foreign body AE, % ([1]; 500 mg Gr1): (7) %
Vomiting AE, % ([1]; 500 mg Gr1): (7) %
Dyspepsia AE, % ([1]; 500 mg Gr2): (14) %
Dysphagia AE, % ([1]; 500 mg Gr2): (14) %
Headache AE, % ([1]; 500 mg Gr2): (7) %
Myalgia AE, % ([1]; 500 mg Gr2): (7) %
Nausea AE, % ([1]; 500 mg Gr2): (14) %
Odynophagia AE, % ([1]; 500 mg Gr2): (7) %
Oesophageal pain AE, % ([1]; 500 mg Gr2): (21) %
Vomiting AE, % ([1]; 500 mg Gr2): (36) %
Vomiting AE, % ([1]; 500 mg Gr3): (7) %
Abdominal discomfort AE, % ([1]; 750 mg Gr1): (13) %
Abdominal distension AE, % ([1]; 750 mg Gr1): (13) %
Abdominal pain AE, % ([1]; 750 mg Gr1): (13) %
Dizziness AE, % ([1]; 750 mg Gr1): (13) %
Dyspepsia AE, % ([1]; 750 mg Gr1): (50) %
Dysphagia AE, % ([1]; 750 mg Gr1): (38) %
Flatulance AE, % ([1]; 750 mg Gr1): (13) %
Headache AE, % ([1]; 750 mg Gr1): (38) %
Hiccups AE, % ([1]; 750 mg Gr1): (25) %
Hot flush AE, % ([1]; 750 mg Gr1): (25) %
Myalgia AE, % ([1]; 750 mg Gr1): (13) %
Nausea AE, % ([1]; 750 mg Gr1): (25) %
Oesophageal pain AE, % ([1]; 750 mg Gr1): (13) %
Salivary hyper-secretion AE, % ([1]; 750 mg Gr1): (25) %
Abdominal discomfort AE, % ([1]; 750 mg Gr2): (13) %
Dysphagia AE, % ([1]; 750 mg Gr2): (13) %
Nausea AE, % ([1]; 750 mg Gr2): (13) %
Vomiting AE, % ([1]; 750 mg Gr2): (25) %
Abdominal distension AE, % ([1]; 1000 mg Gr1): (29) %
Abdominal pain AE, % ([1]; 1000 mg Gr1): (14) %
Diarrhoea AE, % ([1]; 1000 mg Gr1): (43) %
Dizziness AE, % ([1]; 1000 mg Gr1): (14) %
Dyspepsia AE, % ([1]; 1000 mg Gr1): (14) %
Headache AE, % ([1]; 1000 mg Gr1): (29) %
Hiccups AE, % ([1]; 1000 mg Gr1): (29) %
Hot flush AE, % ([1]; 1000 mg Gr1): (14) %
Nausea AE, % ([1]; 1000 mg Gr1): (57) %
Odynophagia AE, % ([1]; 1000 mg Gr1): (14) %
Oesophageal pain AE, % ([1]; 1000 mg Gr1): (14) %
Salivary hyper-secretion AE, % ([1]; 1000 mg Gr1): (29) %
Sensation of a foreign body AE, % ([1]; 1000 mg Gr1): (57) %
Abdominal pain AE, % ([1]; 1000 mg Gr2): (14) %
Diarrhoea AE, % ([1]; 1000 mg Gr2): (14) %
Dyspepsia AE, % ([1]; 1000 mg Gr2): (14) %
Nausea AE, % ([1]; 1000 mg Gr2): (29) %
Odynophagia AE, % ([1]; 1000 mg Gr2): (14) %
Oesophageal pain AE, % ([1]; 1000 mg Gr2): (14) %
Vomiting AE, % ([1]; 1000 mg Gr2): (43) %
Oesophageal pain AE, % ([1]; 1000 mg Gr3): (14) %
dose limiting toxicities ([1]; 200-1000 mg, 7 days, dihydrochloride): No dose limiting toxicities were observed; also recorded: No dose limiting toxicites (DLT) were observed
Abdominal discomfort AE, % ([1]; Total Active Gr1): (9) %
Abdominal distension AE, % ([1]; Total Active Gr1): (11) %
Abdominal pain AE, % ([1]; Total Active Gr1): (16) %
Diarrhoea AE, % ([1]; Total Active Gr1): (14) %
Dizziness AE, % ([1]; Total Active Gr1): (11) %
Dyspepsia AE, % ([1]; Total Active Gr1): (30) %
Dysphagia AE, % ([1]; Total Active Gr1): (9) %
Flatulance AE, % ([1]; Total Active Gr1): (11) %
Headache AE, % ([1]; Total Active Gr1): (20) %
Hiccups AE, % ([1]; Total Active Gr1): (20) %
Hot flush AE, % ([1]; Total Active Gr1): (25) %
Myalgia AE, % ([1]; Total Active Gr1): (7) %
Nausea AE, % ([1]; Total Active Gr1): (32) %
Odynophagia AE, % ([1]; Total Active Gr1): (9) %
Oesophageal pain AE, % ([1]; Total Active Gr1): (7) %
Salivary hyper-secretion AE, % ([1]; Total Active Gr1): (18) %
Sensation of a foreign body AE, % ([1]; Total Active Gr1): (16) %
Vomiting AE, % ([1]; Total Active Gr1): (7) %
Abdominal discomfort AE, % ([1]; Total Active Gr2): (2) %
Abdominal distension AE, % ([1]; Total Active Gr2): (2) %
Abdominal pain AE, % ([1]; Total Active Gr2): (7) %
Diarrhoea AE, % ([1]; Total Active Gr2): (2) %
Dyspepsia AE, % ([1]; Total Active Gr2): (7) %
Dysphagia AE, % ([1]; Total Active Gr2): (7) %
Headache AE, % ([1]; Total Active Gr2): (2) %
Myalgia AE, % ([1]; Total Active Gr2): (5) %
Nausea AE, % ([1]; Total Active Gr2): (11) %
Odynophagia AE, % ([1]; Total Active Gr2): (5) %
Oesophageal pain AE, % ([1]; Total Active Gr2): (14) %
Vomiting AE, % ([1]; Total Active Gr2): (23) %
Oesophageal pain AE, % ([1]; Total Active Gr3): (2) %
Vomiting AE, % ([1]; Total Active Gr3): (2) %
Abdominal discomfort AE, % ([1]; Total TEAE All): (11) %
Abdominal distension AE, % ([1]; Total TEAE All): (14) %
Abdominal pain AE, % ([1]; Total TEAE All): (23) %
Diarrhoea AE, % ([1]; Total TEAE All): (16) %
Dizziness AE, % ([1]; Total TEAE All): (11) %
Dyspepsia AE, % ([1]; Total TEAE All): (36) %
Dysphagia AE, % ([1]; Total TEAE All): (16) %
Flatulance AE, % ([1]; Total TEAE All): (11) %
Headache AE, % ([1]; Total TEAE All): (23) %
Hiccups AE, % ([1]; Total TEAE All): (20) %
Hot flush AE, % ([1]; Total TEAE All): (25) %
Myalgia AE, % ([1]; Total TEAE All): (11) %
Nausea AE, % ([1]; Total TEAE All): (43) %
Odynophagia AE, % ([1]; Total TEAE All): (14) %
Oesophageal pain AE, % ([1]; Total TEAE All): (23) %
Salivary hyper-secretion AE, % ([1]; Total TEAE All): (18) %
Sensation of a foreign body AE, % ([1]; Total TEAE All): (16) %
Vomiting AE, % ([1]; Total TEAE All): (32) %
